Assays:
c-MET = molecular target: T1, c-MET (Homo sapiens, UniProt P08581); experiment: Test A: HTRF Met test in 96-well format; type: biochemical
T1 construct: The recombinant DNA His-Tev-MET (956-1390) in pFastBac(Invitrogen); His (N, cleaved yes); Tev (TEV protease site) (N, cleaved yes); made in house; host or cells: SF21 insect cells (baculovirus, pFastBac)
Outline: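 Percent inhibition was calculated from the HTRF 665/620 ratio, using Eu-cryptate anti-phosphotyrosine PT66 plus streptavidin-XL added with EDTA and read after 2 h. The reaction ran 10 min at room temperature: 5 nM tag-cleaved MET (956–1390), 10 µM ATP, 1 µg/ml poly-GAT, and compound from 0.17 nM to 10 µM in 3% DMSO.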

RON = RON (Homo sapiens, UniProt Q04912); experiment: Test B: HTRF RON test in 96-well format; type: biochemical
RON, sequence (Q04912 25-1400): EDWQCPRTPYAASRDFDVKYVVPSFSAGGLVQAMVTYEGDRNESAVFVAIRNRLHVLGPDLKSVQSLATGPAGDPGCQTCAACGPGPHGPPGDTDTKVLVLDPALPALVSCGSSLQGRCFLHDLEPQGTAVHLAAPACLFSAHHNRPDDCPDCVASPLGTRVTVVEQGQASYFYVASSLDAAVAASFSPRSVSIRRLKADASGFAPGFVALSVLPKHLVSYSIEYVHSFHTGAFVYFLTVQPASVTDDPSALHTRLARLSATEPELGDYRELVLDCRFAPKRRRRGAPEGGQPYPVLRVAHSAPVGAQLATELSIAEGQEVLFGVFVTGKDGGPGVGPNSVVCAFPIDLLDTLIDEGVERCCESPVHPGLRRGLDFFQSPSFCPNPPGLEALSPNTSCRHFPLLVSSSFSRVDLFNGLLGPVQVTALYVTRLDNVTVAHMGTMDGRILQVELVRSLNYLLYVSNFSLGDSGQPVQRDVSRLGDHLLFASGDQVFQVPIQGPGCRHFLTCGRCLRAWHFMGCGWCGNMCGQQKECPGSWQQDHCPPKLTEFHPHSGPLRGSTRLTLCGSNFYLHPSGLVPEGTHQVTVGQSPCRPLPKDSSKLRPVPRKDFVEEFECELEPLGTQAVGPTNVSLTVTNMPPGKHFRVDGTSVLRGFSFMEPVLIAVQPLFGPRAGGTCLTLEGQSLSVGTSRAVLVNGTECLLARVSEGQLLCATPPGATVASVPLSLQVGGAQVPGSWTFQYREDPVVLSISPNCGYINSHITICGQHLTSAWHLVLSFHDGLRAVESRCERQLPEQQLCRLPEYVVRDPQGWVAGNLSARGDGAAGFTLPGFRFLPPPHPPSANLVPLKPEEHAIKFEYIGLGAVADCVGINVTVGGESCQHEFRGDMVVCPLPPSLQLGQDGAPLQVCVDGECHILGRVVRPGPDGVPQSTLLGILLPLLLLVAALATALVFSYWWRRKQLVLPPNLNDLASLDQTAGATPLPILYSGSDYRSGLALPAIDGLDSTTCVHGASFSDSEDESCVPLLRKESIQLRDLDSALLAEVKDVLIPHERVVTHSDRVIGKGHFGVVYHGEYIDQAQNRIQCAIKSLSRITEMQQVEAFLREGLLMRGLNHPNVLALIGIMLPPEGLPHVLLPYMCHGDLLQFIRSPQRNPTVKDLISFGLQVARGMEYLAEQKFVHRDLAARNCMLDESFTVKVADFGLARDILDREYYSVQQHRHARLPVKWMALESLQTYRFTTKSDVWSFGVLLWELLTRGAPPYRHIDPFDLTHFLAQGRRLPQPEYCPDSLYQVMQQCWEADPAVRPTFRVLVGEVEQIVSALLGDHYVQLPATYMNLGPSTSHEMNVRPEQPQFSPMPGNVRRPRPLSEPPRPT
Outline: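 RON 5 nM pre-incubated 30 min at RT with compound (0.17 nM–10 μM final, 3% DMSO) in MOPS 10 mM pH 7, DTT, Tween 20. Reaction with biotinylated poly-(GAT) 1 μg/ml, ATP 10 μM, MgCl2 5 mM, 30 min RT. Eu-anti-pTyr/streptavidin-XL665 HTRF, 665/620 ratio gives % inhibition, IC50.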

MKN45 cells = experiment: Test D: cellular proliferation by 14C-thymidine pulse, MKN45 cells; type: cell-based; conditions: cell line not stated (HCT116 or MKN45)
Outline: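 MKN45 cells (7500/well, RPMI + 10% foetal calf serum) treated with 10 concentrations, 10000 to 0.3 nM in 3-fold steps, duplicate. 14C-thymidine (0.1 μCi/well) added at 72 h; incorporation counted after 24 h pulse, 96 h total treatment.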

[1] = Homo sapiens, MKN-45, cellular proliferation by 14C-thymidine pulse

T1 sequence (P08581 956-1390): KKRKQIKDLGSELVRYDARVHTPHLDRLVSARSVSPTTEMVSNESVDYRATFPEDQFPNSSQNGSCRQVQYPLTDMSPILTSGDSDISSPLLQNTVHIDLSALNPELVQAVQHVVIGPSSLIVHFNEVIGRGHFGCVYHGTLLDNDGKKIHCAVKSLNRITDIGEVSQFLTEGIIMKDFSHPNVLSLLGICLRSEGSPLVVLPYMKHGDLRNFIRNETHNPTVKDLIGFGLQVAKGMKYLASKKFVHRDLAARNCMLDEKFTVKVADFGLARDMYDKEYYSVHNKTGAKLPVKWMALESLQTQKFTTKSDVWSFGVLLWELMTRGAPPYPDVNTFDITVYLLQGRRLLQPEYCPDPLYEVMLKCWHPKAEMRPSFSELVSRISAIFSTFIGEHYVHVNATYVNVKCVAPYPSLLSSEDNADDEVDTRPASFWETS

Molecule | IC50 (c-MET) | IC50 (RON) | IC50 (MKN45 cells; [1]) | test B (RON) | IC50 (MKN45 cells; cellular proliferation by 14C-thymidine pulse)
CC(Oc1cc2sc(NC(=O)NCC(=O)N3CCN(C)CC3)nc2cc1F)c1c(Cl)ccc(F)c1Cl (stereo not drawn) [Example 129, 1-{6-[1-(2,6-dichloro-3-fluorophenyl)ethoxy]-5-fluoro-1,3-benzothiazol-2-yl}-3-[2-(4-methylpiperazin-1-yl)-2-oxoethyl]urea] | < 100 nM | 500 to 10000 nM | 500 to 10000 nM |  | 
CC(Oc1cc2sc(NC(=O)NCCN3CCNC(=O)C3)nc2cc1F)c1c(Cl)ccc(F)c1Cl (stereo not drawn) [Example 130, 1-{6-[1-(2,6-dichloro-3-fluorophenyl)ethoxy]-5-fluoro-1,3-benzothiazol-2-yl}-3-[2-(3-oxopiperazin-1-yl)ethyl]urea] | < 100 nM |  | 500 to 10000 nM | += | 
{6-[1-(2,6-dichloro-3-fluorophenyl)ethoxy]-5-fluoro-1,3-benzothiazol-2-yl}2-(pyrrolidin-1-yl)ethyl carbamate [Example 73] | < 100 nM | 500 to 10000 nM |  |  | 500 to 10000 nM

— patent publication US8188078B2 (Sanofi-Aventis, priority 2007, dated 2012)
